Assay results reported in patent US20130337564A1, “Treatment of Pluripotent Cells” (Janssen Biotech, Inc., priority 2012, published 2013).

Experiments:
Type in all cases: cell-based
[1] = system: HNF-3beta expression in human embryonic stem cells (H9 line); test: High content screening assay: HNF-3beta protein expression (differentiation); conditions: for fold induction at 10 µM: Homo sapiens, Embryonic stem cell, 10 μM test compound with 100 ng/ml activin A on days 1-2, H9, total intensity by IN Cell Analyzer, strong and moderate hits, read-out: HNF3β Expression, Fold over Wnt 3a/AA control
How it was run: (§1)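 H9 hESCs on MATRIGEL treated days 1-2 with 10 μM compound in DMEM:F12, 0.5% FCS, 100 ng/ml activin A; days 3-4 with 2% FCS plus activin A without compound. Fixed cells immunostained for Sox17 or HNF-3beta with Draq5 nuclear counterstain. Cell number and staining intensity quantified by high-content imaging, 12 fields/well.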

[2] = system: human embryonic stem cells (H9 line); test: High content screening assay: cell number (proliferative response); conditions: for fold induction at 10 µM: Homo sapiens, Embryonic stem cell, 10 μM test compound with 100 ng/ml activin A on days 1-2, H9, total cell number by IN Cell Analyzer, strong and moderate hits, read-out: Proliferative Response, Fold over Wnt 3a/AA control
How it was run: as §1

[3] = system: human embryonic stem cells (H9 or H1 lines); test: Plate reader (MTS) proliferation assay; conditions: for activity at 10 µM: Homo sapiens, Embryonic stem cell, 96 h, 10 μM test compound with 100 ng/ml activin A on days 1-2, MTS OD490 on day 4, vs Activin A/Wnt3a positive control, strong and moderate hits; for Average: average of replicate raw data
How it was run: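 H9 or H1 cells on Matrigel, washed, then given DMEM:F12 with 0.5% FCS, 100 ng/ml activin A and 10 μM compound (days 1–2), then 2% FCS plus activin A (days 3–4). MTS added day 4, OD490 read after 1.5–4 h at 37 °C; triplicates as percent of activin A/Wnt3a control.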

[4] = cell number in the wells analysed for HNF-3b expression
[5] = cell number in the wells analysed for SOX-17 expression

SMILES | HNF-3b Expression Total Intensity [1] | Proliferative Response Total cells [2, 4] | Proliferative Response Total cells [2, 5] | activity at 10 µM [3] | Average [3] | fold induction at 10 µM [1] | fold induction at 10 µM [2] | Average (of Raw Data) ([3]; plate reader raw signal, mean of replicate wells, proliferation of human embryonic stem cells)
CN(CCO)CCCn1nc(C2=C(c3cn(-c4cccnc4)c4ccccc34)C(=O)NC2=O)c2ccccc21 [Compound 198, 3-(1-{3-[(2-Hydroxyethyl)(methyl)amino]propyl}-1H-indazol-3-yl)-4-(1-pyridin-3-yl-1H-indol-3-yl)-1H-pyrrole-2,5-dione] | 61161468 | 2594 | 2386 | 70.7% | 1.1253 | – | – | –
O=C1NC(=O)C(c2cn(-c3cccnc3)c3ccccc23)=C1c1cn(CCO)c2ccccc12 [Compound 206, 3-[1-(2-Hydroxyethyl)-1H-indol-3-yl]-4-(1-pyridin-3-yl-1H-indol-3-yl)-1H-pyrrole-2,5-dione] | 309900000 | 10331 | 11886 | 108% | 1.7251 | 1.66 | 1.42 | –
Cn1ccc(C2=C(c3cn(CCCO)c4ncccc34)C(=O)NC2=O)n1 [Compound 209] | 143916667 | 4209 | 2473 | 67.4% | 1.0739 | 0.772 | – | –
COc1ccccc1C1=C(c2cn(-c3cccnc3)c3ccccc23)C(=O)NC1=O [Compound 216, 3-[2-(Methyloxy)phenyl]-4-(1-pyridin-3-yl-1H-indol-3-yl)-1H-pyrrole-2,5-dione] | 306520000 | 8479 | 5991 | 76.9% | 1.1235 | – | – | –
Cc1c[nH]c(-c2cnc(NCCNc3ccc(C#N)cn3)nc2-c2ccc(Cl)cc2Cl)n1 [Compound 221, 6-[(2-{[4-(2,4-Dichlorophenyl)-5-(4-methyl-1H-imidazol-2-yl)pyrimidin-2-yl]amino}ethyl)amino]pyridine-3-carbonitrile] | 1281000000 | 21203 | 21070 | 131% | 1.8228 | 1.16 | 1.38 | 0.4291
CC(C)(O)CCn1nc(C2=C(c3cn(-c4cccnc4)c4ccccc34)C(=O)NC2=O)c2ccccc21 [Compound 223, 3-[1-(3-Hydroxy-3-methylbutyl)-1H-indazol-3-yl]-4-(1-pyridin-3-yl-1H-indol-3-yl)-1H-pyrrole-2,5-dione] | 540725000 | 9871 | 14529 | 129% | 1.7982 | – | 0.948 | –
O=C1NC(=O)C(c2nn(CCO)c3ccccc23)=C1c1cn(-c2cncnc2)c2ccccc12 [Compound 226, 3-[1-(2-Hydroxyethyl)-1H-indazol-3-yl]-4-(1-pyrimidin-5-yl-1H-indol-3-yl)-1H-pyrrole-2,5-dione] | 329425000 | 7650 | 9716 | 120% | 1.6825 | – | 0.634 | –
O=C1NC(=O)C(c2cn(-c3cncnc3)c3ccccc23)=C1c1cn(CCO)c2ccccc12 [Compound 230, 3-[1-(2-Hydroxyethyl)-1H-indol-3-yl]-4-(1-pyrimidin-5-yl-1H-indol-3-yl)-1H-pyrrole-2,5-dione] | 1052345000 | 16884 | 20079 | 147% | 2.0358 | 0.95 | 1.31 | –
Cn1cc(C2=C(c3nn(CCCn4ccnc4)c4ccccc34)C(=O)NC2=O)c2cc(Cl)ccc21 [Compound 231, 3-(5-Chloro-1-methyl-1H-indol-3-yl)-4-{1-[3-(1H-imidazol-1-yl)propyl]-1H-indazol-3-yl}-1H-pyrrole-2,5-dione] | 547055000 | 11369 | 13789 | 114% | 1.6020 | – | 0.9 | –
Cn1cc(C2=C(c3nn(CCCn4ccnn4)c4ccccc34)C(=O)NC2=O)c2cc(Cl)ccc21 [Compound 232, 3-(5-Chloro-1-methyl-1H-indol-3-yl)-4-{1-[3-(1H-1,2,3-triazol-1-yl)propyl]-1H-indazol-3-yl}-1H-pyrrole-2,5-dione] | 854325000 | 14950 | 16652 | 132% | 1.8323 | 0.771 | 1.09 | –
O=C1NC(=O)C2=C1Nc1cccc(c1)OCCC/C=C\CCCOc1cccc2c1 [Compound 233, (11Z)-8,9,10,13,14,15-Hexahydro-2,6:17,21-di(metheno)pyrrolo[3,4-h][1,15,7]dioxazacyclotricosine-22,24(1H,23H)-dione] | 109160000 | 4357 | 6470 | 93% | 1.3325 | – | – | –
